pIC50: −log10 of the molar value.
What was measured:
HDAC8 = target: T1, HDAC8 (Homo sapiens, UniProt Q9BY41); experiment: Histone deacetylase activity, continuous trypsin-coupled assay; type: biochemical; conditions: 15 minutes preincubation; substrate acetyl-Gly-Ala-(N-acetyl-Lys)-AMC
T1 sequence (Q9BY41 1-377): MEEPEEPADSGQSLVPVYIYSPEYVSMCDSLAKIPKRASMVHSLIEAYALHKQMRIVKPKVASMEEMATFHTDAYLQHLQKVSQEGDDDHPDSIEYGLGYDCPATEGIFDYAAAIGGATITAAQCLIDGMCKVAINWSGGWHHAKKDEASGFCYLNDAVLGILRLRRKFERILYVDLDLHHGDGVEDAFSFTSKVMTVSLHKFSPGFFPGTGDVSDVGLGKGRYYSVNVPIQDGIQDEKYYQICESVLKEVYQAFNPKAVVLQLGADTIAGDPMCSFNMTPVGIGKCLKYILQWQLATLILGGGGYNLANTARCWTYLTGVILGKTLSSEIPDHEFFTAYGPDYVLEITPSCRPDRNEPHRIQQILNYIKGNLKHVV
Method: (§1) HDAC activity was measured using a continuous trypsin-coupled assay that has been described in detail previously (US 20070281934; Schultz et. al., Biochemistry, 43 (34), 11083-11091, 2004; Kim et al. (2006), Methods Mol. Biol., 325:273-283). For inhibitor characterization, measurements were performed in a reaction volume of 100 μL using 96-well assay plates in a fluorescence plate reader. For each isozyme, the HDAC protein in reaction buffer (50 mM HEPES, 100 mM KCl, 0.001% Tween-20, 5% DMSO, pH 7.4, supplemented with bovine serum albumin at concentrations of 0-0.05%, was mixed with inhibitor at various concentrations and allowed to incubate for 15 minutes. Trypsin was added to a final concentration of 50 nM, and acetyl-Gly-Ala-(N-acetyl-Lys)-AMC was added to a final concentration of 25-100 μM to initiate the reaction. After a 30 minute lag time, the fluorescence was measured over a 30 minute time frame using an excitation wavelength of 355 nm and a detection wavelength of 460 nm. The increase in fluorescence with time was used as the measure of the reaction rate. Inhibition constants Ki(app) were obtained using the program BatchKi (Biokin, Pullman, Wash.).

HDAC1 = HDAC1 (Homo sapiens, UniProt Q13547); experiment: as above; type: biochemical; conditions: 15 minutes preincubation; substrate acetyl-Gly-Ala-(N-acetyl-Lys)-AMC
Method: as §1

HDAC6 = target: T2, HDAC6 (Homo sapiens, UniProt Q9UBN7); experiment: as above; type: biochemical; conditions: 15 minutes preincubation; substrate acetyl-Gly-Ala-(N-acetyl-Lys)-AMC
T2 sequence (Q9UBN7 1-1215): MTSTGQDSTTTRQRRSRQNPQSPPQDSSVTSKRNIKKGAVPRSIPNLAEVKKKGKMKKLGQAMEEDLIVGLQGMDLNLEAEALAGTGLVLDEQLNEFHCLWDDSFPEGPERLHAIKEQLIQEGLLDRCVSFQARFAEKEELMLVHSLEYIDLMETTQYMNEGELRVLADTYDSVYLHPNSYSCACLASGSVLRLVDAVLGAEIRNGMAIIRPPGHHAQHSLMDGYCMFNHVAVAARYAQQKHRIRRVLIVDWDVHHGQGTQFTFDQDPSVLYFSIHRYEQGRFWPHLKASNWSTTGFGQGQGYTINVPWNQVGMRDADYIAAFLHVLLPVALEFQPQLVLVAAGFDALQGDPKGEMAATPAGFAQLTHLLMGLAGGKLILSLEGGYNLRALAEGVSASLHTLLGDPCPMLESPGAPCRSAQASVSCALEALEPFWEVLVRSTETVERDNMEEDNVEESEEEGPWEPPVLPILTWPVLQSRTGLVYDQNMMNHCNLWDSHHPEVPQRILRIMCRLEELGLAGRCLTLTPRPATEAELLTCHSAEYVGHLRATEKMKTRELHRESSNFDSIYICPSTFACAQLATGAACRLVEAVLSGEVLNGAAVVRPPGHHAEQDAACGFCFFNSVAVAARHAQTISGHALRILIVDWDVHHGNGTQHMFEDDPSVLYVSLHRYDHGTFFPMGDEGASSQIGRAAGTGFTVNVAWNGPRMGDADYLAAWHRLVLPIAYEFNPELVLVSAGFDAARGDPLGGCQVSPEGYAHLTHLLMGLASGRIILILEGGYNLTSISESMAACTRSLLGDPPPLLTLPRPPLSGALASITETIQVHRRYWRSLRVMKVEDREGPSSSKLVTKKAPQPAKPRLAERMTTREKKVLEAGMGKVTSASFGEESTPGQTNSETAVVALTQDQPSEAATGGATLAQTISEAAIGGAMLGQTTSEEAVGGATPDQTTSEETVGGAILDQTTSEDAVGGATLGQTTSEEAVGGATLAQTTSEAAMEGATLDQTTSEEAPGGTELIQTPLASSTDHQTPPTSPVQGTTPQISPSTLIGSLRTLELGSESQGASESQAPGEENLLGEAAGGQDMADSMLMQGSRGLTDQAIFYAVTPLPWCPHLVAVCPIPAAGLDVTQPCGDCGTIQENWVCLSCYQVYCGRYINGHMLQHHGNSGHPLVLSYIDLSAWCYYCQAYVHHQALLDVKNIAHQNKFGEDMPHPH
Method: as §1

Jurkat cells = experiment: Cell proliferation assay, growth inhibition by Alamar Blue; type: cell-based; conditions: Jurkat cells treated with compound for 3 days
Method: Cell lines were obtained from DSMZ (Braunschweig, Germany) or ATCC (Manassas, Va.). Cells were grown in RPMI 1640 with 10% fetal bovine serum in a 5% CO2/air incubator at 37° C. Thapsigargin and BAPTA-AM were from Calbiochem (San Diego, Calif.). 3-((dimethylamino)methyl)-N-(2-(4-(hydroxycarbamoyl)phenoxy)ethyl)benzofuran-2-carboxamide is a broad-spectrum HDAC inhibitor which was synthesized as previously described. Other analogs with varying degrees of specificity towards the HDAC isoforms were synthesized as described herein.
Tumor cell lines and human umbilical vein endothelial cells (HUVEC) were cultured for at least two doubling times, and growth was monitored at the end of compound exposure using an Alamar Blue™ (Biosource, Camarillo, Calif.) fluorometric cell proliferation assay as recommended by the manufacturer. Compounds were assayed in triplicate wells in 96-well plates. The concentration required to inhibit cell growth by 50% (GI50) and 95% confidence intervals were estimated from nonlinear regression using a 4-parameter logistic equation. The effect of HDAC8 selective inhibitor compounds on cell proliferation in Jurkat cells was measured. Apoptosis was measured by Annexin-V flow cytommetry. Growth inhibition was measured by Alamar Blue assay. Cells were treated with compound for 3 days.

HDAC2 = HDAC2 (Homo sapiens, UniProt Q92769); experiment: Histone deacetylase activity, continuous trypsin-coupled assay; type: biochemical; conditions: 15 minutes preincubation; substrate acetyl-Gly-Ala-(N-acetyl-Lys)-AMC
Method: as §1

HDAC10 = target: T3, HDAC10 (Homo sapiens, UniProt Q969S8); experiment: as above; type: biochemical; conditions: 15 minutes preincubation; substrate acetyl-Gly-Ala-(N-acetyl-Lys)-AMC
T3 sequence (Q969S8 1-669): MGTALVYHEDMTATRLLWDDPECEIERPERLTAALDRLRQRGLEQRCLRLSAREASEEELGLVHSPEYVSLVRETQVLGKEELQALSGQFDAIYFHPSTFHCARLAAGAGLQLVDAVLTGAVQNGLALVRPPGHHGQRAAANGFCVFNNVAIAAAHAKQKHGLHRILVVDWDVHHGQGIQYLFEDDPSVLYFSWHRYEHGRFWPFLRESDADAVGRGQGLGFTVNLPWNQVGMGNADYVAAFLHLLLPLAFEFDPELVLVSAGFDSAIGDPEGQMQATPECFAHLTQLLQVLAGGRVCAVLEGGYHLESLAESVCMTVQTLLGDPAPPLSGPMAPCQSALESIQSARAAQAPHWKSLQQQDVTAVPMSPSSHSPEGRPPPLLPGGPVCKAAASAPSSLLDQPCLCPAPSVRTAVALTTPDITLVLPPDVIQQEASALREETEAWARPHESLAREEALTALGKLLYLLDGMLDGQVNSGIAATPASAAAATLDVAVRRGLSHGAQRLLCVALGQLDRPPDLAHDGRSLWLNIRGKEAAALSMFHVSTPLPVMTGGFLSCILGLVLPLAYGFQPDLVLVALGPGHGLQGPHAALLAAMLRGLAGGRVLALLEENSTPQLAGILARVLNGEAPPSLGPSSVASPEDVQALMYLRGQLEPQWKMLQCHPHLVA
Method: as §1

Chain of HDAC2 (Q92769 whole entry, species assumed): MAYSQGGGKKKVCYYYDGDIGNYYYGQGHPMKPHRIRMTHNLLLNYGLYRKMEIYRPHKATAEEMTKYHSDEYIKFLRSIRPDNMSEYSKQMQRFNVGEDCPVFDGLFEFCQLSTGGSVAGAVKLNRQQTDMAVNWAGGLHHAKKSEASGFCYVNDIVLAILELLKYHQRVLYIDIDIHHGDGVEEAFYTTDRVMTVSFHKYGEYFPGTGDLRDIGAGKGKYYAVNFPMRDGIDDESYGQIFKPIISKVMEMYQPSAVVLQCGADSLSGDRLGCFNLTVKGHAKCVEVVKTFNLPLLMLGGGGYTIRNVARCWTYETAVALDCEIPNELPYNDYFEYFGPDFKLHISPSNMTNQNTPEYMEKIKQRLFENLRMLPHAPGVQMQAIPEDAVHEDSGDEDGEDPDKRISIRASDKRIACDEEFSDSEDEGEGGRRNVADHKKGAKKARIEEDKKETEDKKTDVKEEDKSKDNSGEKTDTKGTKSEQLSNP
Chain of HDAC1 (Q13547 whole entry, species assumed): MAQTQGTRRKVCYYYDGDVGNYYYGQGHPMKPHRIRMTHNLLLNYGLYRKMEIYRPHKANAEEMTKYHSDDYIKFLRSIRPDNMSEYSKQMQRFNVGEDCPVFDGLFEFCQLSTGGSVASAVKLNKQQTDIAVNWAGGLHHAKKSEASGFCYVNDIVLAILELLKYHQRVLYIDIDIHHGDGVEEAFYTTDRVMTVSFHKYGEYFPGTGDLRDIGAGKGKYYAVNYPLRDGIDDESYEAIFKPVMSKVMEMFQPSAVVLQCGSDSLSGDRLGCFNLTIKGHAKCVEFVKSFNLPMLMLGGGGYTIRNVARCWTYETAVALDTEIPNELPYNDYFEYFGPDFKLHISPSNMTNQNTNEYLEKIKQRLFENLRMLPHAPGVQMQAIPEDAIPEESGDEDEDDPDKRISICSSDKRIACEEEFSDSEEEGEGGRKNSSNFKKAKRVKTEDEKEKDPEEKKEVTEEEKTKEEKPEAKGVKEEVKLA

Row | SMILES | pIC50 (HDAC8) | pIC50 (HDAC1) | pIC50 (HDAC6) | GI50 (Jurkat cells; Homo sapiens, 72 h) | pIC50 (HDAC2) | pIC50 (HDAC10) | GI50 (Jurkat cells)
1 | O=C(NO)c1ccc2ncn(Cc3ccccc3)c2c1 [Compound 1, 3-benzyl-N-hydroxy-3H-benzo[d]imidazole-5-carboxamide] | > 6.00 | < 5.00 | 5.00 to 6.00 | – | – | – | –
2 | COc1ccc(Cn2cccc2/C=C/C(=O)NO)cc1 [Compound 203, (E)-3-(1-(4-methoxybenzyl)-1H-pyrrol-2-yl)-N-hydroxyacrylamide] | > 6.00 | < 5.00 | 5.00 to 6.00 | – | – | – | –
3 | O=C(/C=C/c1cccn1CCOc1ccccc1)NO [Compound 232, (E)-N-hydroxy-3-(2-phenoxyethyl-1H-pyrrol-2-yl)acrylamide] | > 6.00 | < 5.00 | 5.00 to 6.00 | – | – | – | 4.98 µM
4 | O=C(/C=C/c1cccn1CCOc1cccc(F)c1)NO [Compound 234, (E)-3-(1-(2-(3-fluorophenoxy)ethyl)-1H-pyrrol-2-yl)-N-hydroxyacrylamide] | > 6.00 | 5.00 to 6.00 | 5.00 to 6.00 | 4.3 µM | – | – | –
5 | COc1ccc(Cn2cc(CN(C)C)c3ccc(C(=O)NO)cc32)cc1 [Compound 307, N-hydroxy-1-(4-methoxybenzyl)-3-(dimethylaminomethyl)-1H-indole-6-carboxamide] | > 6.00 | – | – | – | < 5.00 | – | –
6 | COc1ccc(Cn2cc(CN(C)CCc3ccccn3)c3ccc(C(=O)NO)cc32)cc1 [Compound 309, N-hydroxy-1-(4-methoxybenzyl)-3-((methyl(2-(pyridin-2-yl)ethyl)amino)methyl)-1H-indole-6-carboxamide] | > 6.00 | – | – | 19.2 µM | < 5.00 | – | –
7 | COc1ccc(Cn2ccc3ccc(C(=O)NO)cc32)cn1 [Compound 310, N-hydroxy-1-(2-methoxylpyridin-5-ylmethyl)-1H-indole-6-carboxamide] | > 6.00 | – | – | 16 µM | < 5.00 | – | –
8 | O=C(NO)c1ccc2ccn(Cc3cccc(NS(=O)(=O)c4ccccc4)c3)c2c1 [Compound 313, N-hydroxy-1-(3-(phenylsulfonamido)benzyl)-1H-indole-6-carboxamide] | > 6.00 | – | – | 5.2 µM | 5.00 to 6.00 | – | –

Further lines, with some results ahead:

Row | pIC50 (HDAC8) | pIC50 (HDAC1) | pIC50 (HDAC6) | GI50 (Jurkat cells; Homo sapiens, 72 h) | pIC50 (HDAC2) | pIC50 (HDAC10) | SMILES | GI50 (Jurkat cells)
9 | > 6.00 | – | – | – | < 5.00 | – | O=C(NO)c1ccc2ccn(Cc3ccc4c(c3)OCO4)c2c1 [Compound 315, N-hydroxy-1-(benzo[d][1,3]dioxol-5-ylmethyl)-1H-indole-6-carboxamide] | –
10 | > 6.00 | < 5.00 | 5.00 to 6.00 | – | – | – | O=C(NO)c1ccc2ccn(CCOc3ccccc3F)c2c1 [Compound 317, N-hydroxy-1-(2-(2-fluorophenoxy)ethyl)-1H-indole-6-carboxamide] | –
11 | > 6.00 | < 5.00 | 5.00 to 6.00 | – | – | – | O=C(NO)c1ccc2ccn(CCOc3cccc(F)c3)c2c1 [Compound 318, N-hydroxy-1-(2-(3-fluorophenoxy)ethyl)-1H-indole-6-carboxamide] | –
12 | > 6.00 | < 5.00 | 5.00 to 6.00 | – | – | – | O=C(NO)c1ccc2ccn(CCOc3ccccc3Cl)c2c1 [Compound 320, N-hydroxy-1-(2-(2-chlorophenoxy)ethyl)-1H-indole-6-carboxamide] | –
13 | > 6.00 | < 5.00 | 5.00 to 6.00 | – | – | – | O=C(NO)c1ccc2ccn(CCOc3cccc(Cl)c3)c2c1 [Compound 321, N-hydroxy-1-(2-(3-chlorophenoxy)ethyl)-1H-indole-6-carboxamide] | –
14 | > 6.00 | < 5.00 | < 5.00 | – | – | < 5.00 | O=C(NO)c1ccc2ccn(CCOc3ccccc3CN3CCOCC3)c2c1 [Compound 326, N-hydroxy-1-(2-(2-(morpholin-4-ylmethyl)phenoxy)ethyl)-1H-indole-6-carboxamide] | –

Source: patent publication US8466193B2, “Selective inhibitors of histone deacetylase” (Pharmacyclics, Inc., priority 2008, dated 2013)
